For 28 compounds, inhibition and Ki results are on record in the Kinase Knowledgebase extract (Sharma et al. 2016).

The structures appear in SMILES notation.

The test concerns the target CDK2 (UniProt P24941). Description: Enzyme Assay. To be noted: for inhibition: concentration not given here.

For `Cc1c(-c2csc(-c3sc(Nc4ccc(N(C)C)cc4)nc3N)n2)sc2ccc(Cl)cc12`, the inhibition was found to be 27.2%.
Still for that read-out and setting: as for `COc1ccc(OC)c(-c2csc(-c3sc(Nc4cc(OC)c(OC)c(OC)c4)nc3N)n2)c1`, the figure is 12.2%; as for `COc1cc(Nc2nc(N)c(-c3nc(-c4ccc(Cl)c(C)c4)cs3)s2)cc(OC)c1OC`, -4.4%; as for `COC(=O)c1ccc(-c2csc(-c3sc(Nc4cc(OC)c(OC)c(OC)c4)nc3N)n2)cc1`, 0%.
Same read-out and setting: as for `COc1cc(Nc2nc(N)c(-c3nc(-c4ccc(F)c(F)c4)cs3)s2)cc(OC)c1OC`, the figure is -5%; as for `COc1cc(Nc2nc(N)c(-c3nc(-c4c(-c5ccccc5)noc4C)cs3)s2)cc(OC)c1OC`, 13.6%; as for `Cc1c(-c2csc(-c3sc(Nc4ccc(S(N)(=O)=O)cc4)nc3N)n2)sc2ccc(Cl)cc12`, 61.5%.
The same measure, in the same setting: as for `COc1ccc2nc(-c3ccccc3)c(-c3csc(-c4sc(Nc5cc(OC)c(OC)c(OC)c5)nc4N)n3)cc2c1`, the figure is -2.7%; as for `CCOC(=O)c1cc(-c2csc(-c3sc(Nc4cc(OC)c(OC)c(OC)c4)nc3N)n2)on1`, 23.2%; as for `COc1cc(Nc2nc(N)c(-c3nc(-c4cccc(Br)c4)cs3)s2)cc(OC)c1OC`, 15.6%.
Turning to `Nc1nc(Nc2ccc(S(N)(=O)=O)cc2)sc1-c1nc(-c2cccc([N+](=O)[O-])c2)cs1`, the inhibition turned out to be 17.8%.
The same measure, in the same setting: as for `CC(C)c1ccc(Nc2nc(N)c(-c3nc(-c4ccc(Cl)cc4Cl)cs3)s2)cc1`, the figure is 15.1%.
In turn, `Nc1nc(Nc2ccc(S(N)(=O)=O)cc2)sc1-c1nc(-c2cc3ccccc3s2)cs1` came in with a Ki of 3.2 µM.
As for `COc1cc(Nc2nc(N)c(-c3nc(-c4sc5ccccc5c4C)cs3)s2)cc(OC)c1OC`, the inhibition is 23.1%.
The same measure, in the same setting: as for `CN(C)c1ccc(Nc2nc(N)c(-c3nc(-c4ccc5c(c4)CCC(=O)N5)cs3)s2)cc1`, the figure is -2.5%; as for `Nc1nc(Nc2ccc(S(N)(=O)=O)cc2)sc1-c1nc(-c2ccc(-c3ccccc3)cc2)cs1`, 0%.
For the compound `COc1cc(Nc2nc(N)c(-c3nc(-c4c(Cl)c(Cl)nc(Cl)c4Cl)cs3)s2)cc(OC)c1OC`, the inhibition came to 10.3%.
Regarding `COc1cc(Nc2nc(N)c(-c3nc(-c4ccc(-c5ccccc5)cc4)cs3)s2)cc(OC)c1OC`, the inhibition came to 20.4%.
For the compound `COc1cc(Nc2nc(N)c(-c3nc(-c4ccccc4[N+](=O)[O-])cs3)s2)cc(OC)c1OC`, the inhibition was 1.9%.
The same measure, in the same setting: as for `COc1cc(Nc2nc(N)c(-c3nc(-c4cccc([N+](=O)[O-])c4)cs3)s2)cc(OC)c1OC`, the figure is 6.6%.
Still for that read-out and setting: as for `Cc1c(-c2csc(-c3sc(Nc4ccc(C(C)C)cc4)nc3N)n2)sc2ccc(Cl)cc12`, the figure is 34.8%; as for `CN(C)c1ccc(Nc2nc(N)c(-c3nc(-c4ccccc4[N+](=O)[O-])cs3)s2)cc1`, 8.3%; as for `COc1cc(Nc2nc(N)c(-c3nc(-c4cc5cc(Cl)ccc5o4)cs3)s2)cc(OC)c1OC`, -6%.
The same measure, in the same setting: as for `COc1cc(OC)c(-c2csc(-c3sc(Nc4cc(OC)c(OC)c(OC)c4)nc3N)n2)c(O)c1Cl`, the figure is 11.8%; as for `COc1cc(Nc2nc(N)c(-c3nc(-c4ccccc4OC(C)=O)cs3)s2)cc(OC)c1OC`, 1.6%.
Consider `COc1cc(Nc2nc(N)c(-c3nc(-c4c(C)c(C)c(C)c(C)c4C)cs3)s2)cc(OC)c1OC`, for which the inhibition worked out at 19.8%.
On the same count and under the same terms, in the case of `CCCCCc1ccc(-c2csc(-c3sc(Nc4ccc(S(N)(=O)=O)cc4)nc3N)n2)cc1` it was -9.9%; in that of `COc1cc(Nc2nc(N)c(C3=NC(c4cc(F)c(C)c(Cl)c4)CS3)s2)cc(OC)c1OC` (stereo not drawn), -7.5%.
